According to US10065953B2, “Imidazo[1,2-A]pyridine derivatives for use as inhibitors of human immunodeficiency virus replication” (priority 2014, dated 2018):
Where a name gives a salt, the structure may show the parent alone.

Test system: recombinant NL-Rluc virus
Experiment: Inhibition of HIV replication (NL-RLuc luciferase reporter virus in MT-2 cells)
Format: cell-based
Settings: MT-2 cells infected with NL-RLuc virus, 5 days of incubation, luciferase readout, serum condition of the table not specified
[1] = Human immunodeficiency virus 1, MT2, 120 h

SMILES	EC50	EC50 [1]
Cc1cc2nc(-c3cccc(-c4ccc(F)cc4)c3)cn2c(-c2ccc3c4c(ccnc24)CCO3)c1[C@H](OC(C)(C)C)C(=O)O [Example 13, (2S)-2-(tert-Butoxy)-2-(5-(2,3-dihydropyrano[4,3,2-de]quinolin-7-yl)-2-(4′-fluoro-[1,1′-biphenyl]-3-yl)-7-methylimidazo[1,2-a]pyridin-6-yl)acetic Acid.TFA]	398 nM	
Cc1cc2nc(-c3cccc(-c4cccc(C#N)c4)c3)cn2c(N2CCC(C)(C)CC2)c1[C@H](OC(C)(C)C)C(=O)O [Example 7, (S)-2-(tert-Butoxy)-2-(2-(3′-cyano-[1,1′-biphenyl]-3-yl)-5-(4,4-dimethylpiperidin-1-yl)-7-methylimidazo[1,2-a]pyridin-6-yl)acetic Acid]		6 nM
Cc1ccc(-c2cccc(-c3cn4c(N5CCC(C)(C)CC5)c([C@H](OC(C)(C)C)C(=O)O)c(C)cc4n3)c2)c(F)c1 [Example 6, (S)-2-(tert-Butoxy)-2-(5-(4,4-dimethylpiperidin-1-yl)-2-(2′-fluoro-4′-methyl-[1,1′-biphenyl]-3-yl)-7-methylimidazo[1,2-a]pyridin-6-yl)acetic Acid]		21 nM
Cc1cc2nc(-c3cccc(-c4ccc(F)cc4)c3)cn2c(-c2ccc3c(c2)C(C)(C)CCO3)c1[C@H](OC(C)(C)C)C(=O)O [Example 19, (S)-2-(tert-Butoxy)-2-(5-(4,4-dimethylchroman-6-yl)-2-(4′-fluoro-[1,1′-biphenyl]-3-yl)-7-methylimidazo[1,2-a]pyridin-6-yl)acetic Acid]		95 nM
Cc1cc2nc(-c3cccc(-c4ccc(F)cc4F)c3)cn2c(N2CCC(C)(C)CC2)c1[C@H](OC(C)(C)C)C(=O)O [Example 5, (S)-2-(tert-Butoxy)-2-(2-(2′,4′-difluoro-[1,1′-biphenyl]-3-yl)-5-(4,4-dimethylpiperidin-1-yl)-7-methylimidazo[1,2-a]pyridin-6-yl)acetic Acid]		29 nM
Cc1cc2nc(-c3cccc(-c4ccc(F)cc4)c3)cn2c(-c2cc(F)c3c(c2C)CCCO3)c1[C@H](OC(C)(C)C)C(=O)O [Example 16, (2S)-2-(tert-Butoxy)-2-(5-(8-fluoro-5-methylchroman-6-yl)-2-(4′-fluoro-[1,1′-biphenyl]-3-yl)-7-methylimidazo[1,2-a]pyridin-6-yl)acetic Acid]	4 nM	
Cc1cc2nc(-c3cccc(-c4ccc(F)cc4)c3)cn2c(-c2ccc3c4c(ccnc24)CCO3)c1[C@H](OC(C)(C)C)C(=O)O [Example 12, (2S)-2-(tert-Butoxy)-2-(5-(2,3-dihydropyrano[4,3,2-de]quinolin-7-yl)-2-(4′-fluoro-[1,1′-biphenyl]-3-yl)-7-methylimidazo[1,2-a]pyridin-6-yl)acetic Acid.TFA]	19 nM	
Cc1cc(-c2cccc(-c3cn4c(N5CCC(C)(C)CC5)c([C@H](OC(C)(C)C)C(=O)O)c(C)cc4n3)c2)n(C)n1 [Example 10, (S)-2-(tert-Butoxy)-2-(2-(3-(1,3-dimethyl-1H-pyrazol-5-yl)phenyl)-5-(4,4-dimethylpiperidin-1-yl)-7-methylimidazo[1,2-a]pyridin-6-yl)acetic Acid]		7 nM
Cc1cc2nc(-c3cccc(-c4ccc(F)cc4)c3)cn2c(N2CCC(C)(C)CC2)c1[C@H](OC(C)(C)C)C(=O)O [Example 3, (S)-2-(tert-Butoxy)-2-(5-(4,4-dimethylpiperidin-1-yl)-2-(4′-fluoro-[1,1′-biphenyl]-3-yl)-7-methylimidazo[1,2-a]pyridin-6-yl)acetic Acid]		26 nM
Cc1cc2nc(-c3cccc(-c4ccc(F)cc4)c3)cn2c(-c2cc(F)c3c(c2C)CCCO3)c1[C@H](OC(C)(C)C)C(=O)O [Example 15, (2S)-2-(tert-Butoxy)-2-(5-(8-fluoro-5-methylchroman-6-yl)-2-(4′-fluoro-[1,1′-biphenyl]-3-yl)-7-methylimidazo[1,2-a]pyridin-6-yl)acetic Acid]	175 nM	
Cc1cc2nc(-c3cccc(-c4cccc(F)c4)c3)cn2c(N2CCC(C)(C)CC2)c1[C@H](OC(C)(C)C)C(=O)O [Example 4, (S)-2-(tert-butoxy)-2-(5-(4,4-dimethylpiperidin-1-yl)-2-(3′-fluoro-[1,1′-biphenyl]-3-yl)-7-methylimidazo[1,2-a]pyridin-6-yl)acetic Acid]		21 nM
Cc1ccc(-c2cccc(-c3cn4c(N5CCC(C)(C)CC5)c([C@H](OC(C)(C)C)C(=O)O)c(C)cc4n3)c2)cc1 [Example 2, (S)-2-(tert-butoxy)-2-(5-(4,4-dimethylpiperidin-1-yl)-7-methyl-2-(4′-methyl-[1,1′-biphenyl]-3-yl)imidazo[1,2-a]pyridin-6-yl)acetic Acid]		32 nM
Cc1ccc(-c2c([C@H](OC(C)(C)C)C(=O)O)c(C)cc3nc(-c4cccc(-c5ccc(F)cc5)c4)cn23)cc1 [Example 14, (S)-2-(tert-butoxy)-2-(2-(4′-fluoro-[1,1′-biphenyl]-3-yl)-7-methyl-5-(p-tolyl)imidazo[1,2-a]pyridin-6-yl)acetic Acid]		20 nM
Cc1cc2nc(-c3cccc(-c4ccccc4)c3)cn2c(N2CCC(C)(C)CC2)c1[C@H](OC(C)(C)C)C(=O)O [Example 1, (S)-2-(2-([1,1′-Biphenyl]-3-yl)-5-(4,4-dimethylpiperidin-1-yl)-7-methylimidazo[1,2-a]pyridin-6-yl)-2-(tert-butoxy)acetic Acid]		51 nM
Cc1cc2nc(-c3cccc(-c4ccc(F)cc4)c3)cn2c(-c2ccc(F)cc2)c1[C@H](OC(C)(C)C)C(=O)O [Example 17, (S)-2-(tert-Butoxy)-2-(2-(4′-fluoro-[1,1′-biphenyl]-3-yl)-5-(4-fluorophenyl)-7-methylimidazo[1,2-a]pyridin-6-yl)acetic Acid]		159 nM
Cc1cc2nc(-c3cccc(-c4cnn(C)c4)c3)cn2c(N2CCC(C)(C)CC2)c1[C@H](OC(C)(C)C)C(=O)O [Example 9, (S)-2-(tert-Butoxy)-2-(5-(4,4-dimethylpiperidin-1-yl)-7-methyl-2-(3-(1-methyl-1H-pyrazol-4-yl)phenyl)imidazo[1,2-a]pyridin-6-yl)acetic Acid]		6 nM
Cc1cc2nc(-c3cccc(-c4ccc(F)cc4)c3)cn2c(-c2ccc3c(c2)CCCO3)c1[C@H](OC(C)(C)C)C(=O)O [Example 18, (S)-2-(tert-Butoxy)-2-(5-(chroman-6-yl)-2-(4′-fluoro-[1,1′-biphenyl]-3-yl)-7-methylimidazo[1,2-a]pyridin-6-yl)acetic Acid]		7 nM
Cc1cc2nc(-c3cccc(-c4cnn(Cc5ccccc5)c4)c3)cn2c(N2CCC(C)(C)CC2)c1[C@H](OC(C)(C)C)C(=O)O [Example 8, (S)-2-(2-(3-(1-Benzyl-1H-pyrazol-4-yl)phenyl)-5-(4,4-dimethylpiperidin-1-yl)-7-methylimidazo[1,2-a]pyridin-6-yl)-2-(tert-butoxy)acetic Acid]		22 nM
Cc1cc2nc(-c3cccc(-c4cc(C(F)(F)F)nn4C)c3)cn2c(N2CCC(C)(C)CC2)c1[C@H](OC(C)(C)C)C(=O)O [Example 11, (S)-2-(tert-Butoxy)-2-(5-(4,4-dimethylpiperidin-1-yl)-7-methyl-2-(3-(1-methyl-3-(trifluoromethyl)-1H-pyrazol-5-yl)phenyl)imidazo[1,2-a]pyridin-6-yl)acetic Acid]		21 nM
